# Columns and labels:
# [1] = system: wild-type ERα and ERα LBD mutants Y537S, Y537N, Y537C, D538G; experiment: ERE-luciferase reporter assay in Caov2 and SKBR3 cells (statements on all receptors); assay type: cell-based
# Description: ExSite mutagenesis was performed using the corresponding primers as summarized in Table 1 below on a pENTR2B ERα WT construct using Pfu ultra taq polymerase. The primers were PNK phosphorylated. Following PCR amplification, the products were digested with DpnI at 37° C. for 1 hr, followed by overnight ligation at 16° C. Ligated products were transformed into DH5α bacterial cells and grown on kanamycin resistant plates. The pENTR clones were verified by sequencing and then swapped into the pcDNA-DEST vector using the Gateway system (Invitrogen) for expression analysis.
# Caov2 ovarian carcinoma cells were grown in RPMI-1640 media (Gibco) supplemented with 8% Fetal Bovine Serum (FBS), Sodium Pyruvate (NaPyr) and non-essential amino acids (NEAA) and passaged every 2-3 days. SKBR3 breast adenocarcinoma cells were grown in DMEM media (Gibco) supplemented with 8% Fetal Bovine Serum (FBS), Sodium Pyruvate (NaPyr) and non-essential amino acids (NEAA) and passaged every 2-3 days. […]
# Caov2 cells were co-transfected with the 7X-TK-ERE-TATA luciferase reporter gene (Nagel et al., Endocrinology 142(11): 4721-4728 (2001)) and expression constructs for either wild-type or mutant receptors using Fugene transfection reagent (Promega). […] Following 24 hours of treatment, cells were lysed and the luciferase and β-gal assays were performed as described previously (Norris et al., J Biol Chem 270(39): 22777-22782 (1995)) and the plates were read on the Fusion α-FP HT plate reader (PerkinElmer Life Sciences).
# See Jeselsohn et al., Nature Reviews Clinical Oncology 12(10): 573-583 (2015); Jeselsohn et al., Clinical Cancer Research 20(7): 1757-1767 (2014); Robinson et al., Nature Genetics 45(12): 1446-1451(2013); Thomas and Gustafsson, Trends in Endocrinology and Metabolism 26(9): 467-476 (2015); and Toy et al., Nature Genetics 45(12): 1439-1445 (2013). The activity of these mutants was evaluated in a reconstituted estrogen response element (ERE)-luciferase reporter assay in Caov2 ovarian carcinoma cells and SKBR3 breast adenocarcinoma cells. […]
# [2] = system: ER+ HER2− advanced or metastatic breast cancer; experiment: Phase 2 clinical study, lasofoxifene versus fulvestrant; assay type: in vivo, postmenopausal women; conditions: 5 mg once daily oral
# Description: The design of the study is outlined in FIG. 26. The study is an open label, randomized, multicenter study. Full recruitment into study occurs within twelve to sixteen months, with another twelve months of follow up before the primary outcome measure is analyzed. Screening tests are performed within thirty days of enrollment. Subjects are treated until documented disease progression.
# As a comparison, fulvestrant is given to the breast cancer patient at 500 mg by intramuscular injection on day 1, day 15, and day 29, and then once every month.
# The inclusion criteria include: • 1. Postmenopausal women with: a. locally advanced or metastatic breast cancer with either measurable or non-measurable lesions, b. progression on an AI in combination with a CDK 4/6 inhibitor for advanced breast cancer; • 2. If possible, a biopsy of metastatic breast cancer tissue will be obtained to confirm ER^+ and HER2^− disease; • 3. At least one or more of the following ESR1 mutations: Y537S, Y537N, Y537C, D538G, L536, E380Q, or S463P assessed from […] in blood; • 4. Received one chemotherapy regimen in the neo-adjuvant or adjuvant setting prior to entry into the trial; • 5. ECOG performance score of 0 or 1.
structure (smiles),measurement,setting,value
"Oc1ccc2c(c1)CC[C@H](c1ccccc1)[C@@H]2c1ccc(OCCN2CCCC2)cc1 [Lasofoxifene, lasofoxifene]",inhibition of the transcriptional activity of the ERα mutants,"[1]; all tested ERα LBD mutants, in presence of 1 nM 17-β estradiol, Caov2 and SKBR3 cells",effectively inhibited the transcriptional activity of all tested ERα LBD mutants in a dose-response manner
same,response of mutants to inhibitory action compared with WT receptor,[1]; each mutant versus WT receptor,reduced response
same,median PFS compared to fulvestrant,[2]; D538G mutant patient population,increases the median PFS
same,median PFS compared to fulvestrant,[2]; E380Q mutant patient population,increases the median PFS
same,median PFS compared to fulvestrant,[2]; ESR1 mutation population,increases the median PFS
same,median PFS compared to fulvestrant,[2]; L536 mutant patient population,increases the median PFS
same,median PFS compared to fulvestrant,[2]; S463P mutant patient population,increases the median PFS
same,median PFS compared to fulvestrant,[2]; Y537C mutant patient population,increases the median PFS
same,median PFS compared to fulvestrant,[2]; Y537N mutant patient population,increases the median PFS
same,median PFS compared to fulvestrant,[2]; Y537S mutant patient population,increases the median PFS

# Reference: patent US11974983B2 (Duke University, priority 2018, dated 2024)
